# Laboratory results published in US20160053277A1, “Compositions Having Dicamba Decarboxylase Activity and Methods of Use” (PIONEER HI-BRED INTERNATIONAL, INC., priority 2013, published 2016).
# “Also recorded” adds a separate entry of the source.
# How the values were obtained:
# [1] = tested on: Soybean seeds; experiment: Soybean germination test on media with dicamba or decarboxylation product; assay type: in vivo; details: FIG. 2, concentration not stated
# [2] = tested on: Arabidopsis ecotype Columbia (Col-0); experiment: Arabidopsis root growth inhibition assay; details: 6 days
# Experimental: Phytotoxicity of other major dicamba decarboxylated products was evaluated using Arabidopsis root growth inhibition assay. 4-chloro-3-methoxy phenol was purchased from Biogene Organics, Inc. (catalog number U06-642-79). 2,5-dichloro phenol was purchased from Sigma-Aldrich (catalog number D70007). Briefly, seeds of Arabidopsis ecotype Columbia (Col-0) were surface sterilized with 70% (v/v) ethanol for 5 minutes and 10% (v/v) bleach for 15 minutes. After being washed three times with distilled water, the seeds were germinated on 1× Murashige and Skoog (MS) medium with a pH of 5.7, 3% (w/v) sucrose, and 0.8% (w/v) agar. After incubation for 3.5 days, the seedlings were transferred to 1× MS medium containing B5 vitamin, 3% (w/v) sucrose, 1.2% (w/v) agar, and filter sterilized compounds was added to the media at 60° C. The concentrations of compounds including dicamba were 0 μM, 1.0 μM, and 10 μM. The seedlings were placed vertically, and the temperature maintained at 23° C. to allow root growth along the surface of the agar, with a photoperiod of 16 h of light and 8 h of dark.
# After 6 days on media, root growth was evaluated. In wild type Arabidopsis, root growth inhibition is expected from auxin herbicide treatment.
smiles,measurement,setting,value
"COc1cc(Cl)ccc1Cl [2,5-DCA, 2,5-dichloro anisole]",soybean germination,[1],not affected
"Oc1cc(Cl)ccc1Cl [2,5-dichloro phenol]",Arabidopsis root growth,[2]; 1 uM in medium,not affected; also recorded: did not have any effect
same,Arabidopsis root growth,[2]; 10 uM in medium,not affected; also recorded: did not have any effect
